Experimental data taken from patent US20220380347A1, “INHIBITORS OF CYSTEINE PROTEASES AND METHODS OF USE THEREOF” (Pardes Biosciences, Inc., priority 2020, published 2022).
Where “and” joins values, the source holds several entries; their conditions need not be identical. Equal values may be shown once. Read-outs that look alike come from different tables or passages of the source.

Key:
229E Mpro = 229E Mpro (Human coronavirus 229E, UniProt P0C6X1); assay: 229E Mpro enzymatic assay (standard methods, SARS-CoV2 Mpro assay given as exemplary); type: biochemical, human coronavirus (HCov) 229E
Procedure: Compounds were assayed using standard methods to assess compound activity and IC50. As an exemplary for assessment of the SARS-COV2 Mpro, the C-His6-tagged Mpro (NC_045512) was cloned, expressed in E. coli and purified. The assay buffer contained 20 mM of Tris-HCl (pH 7.3), 100 mM of NaCl, 1 mM of EDTA, 5 mM of TCEP and 0.1% BSA. The final concentrations of the Mpro protein and substrate were 25 nM and 25 μM, respectively, in the Mpro enzymatic assay. The Km of the Mpro substrate for the protease was 13.5 μM.
The compounds were added to an assay plate. […] For no inhibition control (ZPE, zero percent effect), no compound was added.
IC50 values of compounds were calculated with the GraphPad Prism software using the nonlinear regression model of log(inhibitor) vs. response—Variable slope (four parameters). The inhibition activity was calculated using the formula below, IC50 values is calculated using the Inhibition % data.
Inhibition %=[(Sample-Average ZPE)/(Average HPE-Average ZPE)]*100%^#

[1] = molecular target: COVID-19 (nCoV-2019, SARS-CoV2) Mpro (Severe acute respiratory syndrome coronavirus 2, UniProt P0DTD1); assay: COVID-19 (nCoV-2019, SARS-CoV2) Mpro enzymatic assay; type: biochemical; conditions: 25 nM Mpro, 25 μM substrate; read-out: COVID-19 Mpro IC50
HCov OC43 = assay: HCoV OC43 cytopathic effect (CPE) assay, CellTiter Glo; type: cell-based, human coronavirus (HCov) OC43
Procedure: Example 238: Evaluation of antiviral activity of compounds against human coronavirus (HCov) 229E and OC43 in the cytopathic effect (CPE) assays
Compounds were assayed using standard methods against multiple coronaviral strains, including HCoV 229E and OC43 strains. The antiviral activity of compounds was calculated based on the protection of the virus-induced CPE at each concentration normalized by the virus control.
Reference compound used was remdesivir; detection reagent: CellTiter Glo.) The CPE were measured by CellTiter Glo following the manufacturer's manual. The antiviral activity of compounds was calculated based on the protection of the virus-induced CPE at each concentration normalized by the virus control.
Cell viability was measured with CellTiter Glo.

[2] = read-out: OC43 IC50 (uM) MEDIAN, median
[3] = Betacoronavirus 1, OC43, read-out: OC43 IC50 (uM) MEDIAN, median

Sequence of 229E Mpro (P0C6X1 2966-3267): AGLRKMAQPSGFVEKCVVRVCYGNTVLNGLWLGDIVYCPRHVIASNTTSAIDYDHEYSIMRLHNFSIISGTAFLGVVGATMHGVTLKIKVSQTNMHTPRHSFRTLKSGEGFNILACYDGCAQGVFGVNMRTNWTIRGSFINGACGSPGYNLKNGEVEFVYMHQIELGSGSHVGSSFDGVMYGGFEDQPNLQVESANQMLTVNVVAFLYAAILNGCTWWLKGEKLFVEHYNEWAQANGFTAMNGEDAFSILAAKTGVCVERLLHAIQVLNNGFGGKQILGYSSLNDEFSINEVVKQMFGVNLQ

| SMILES | EC50 (229E Mpro; 229E Mpro EC50) [nM] | IC50 [1] | IC50 (HCov OC43; [2]) [µM] | EC50 (229E Mpro; read-out: 229E Mpro EC50) [nM] | IC50 (HCov OC43; [3]) [µM] |
| --- | --- | --- | --- | --- | --- |
| CC1(C)CN(C#N)[C@@H](C(=O)N(c2ccc(C(C)(C)C)cc2)C(C(=O)NC2CCOCC2)c2cccnc2)CO1 (single isomer, unassigned) [1141 Isomer 4] | < 2000 | 10000 to 30000 nM | 10 to 30 |  |  |
| CC(C)(C)c1ccc(N(C(=O)[C@H]2C[C@@](C)(O)CN2C#N)C(C(=O)NC2CCOCC2)c2cccnc2)cc1 (single isomer, unassigned) [1142 Isomer 1] | < 2000 | < 2000 nM | < 2 |  |  |
| CC(C)(C)c1ccc(N(C(=O)[C@H]2C[C@@](C)(O)CN2C#N)C(C(=O)NC2CCOCC2)c2cccnc2)cc1 (single isomer, unassigned) [1142 Isomer 2] |  | 2000 to 10000 nM | 10 to 30 | < 2000 |  |
| CO[C@@H]1C[C@H](C(=O)N(c2ccc(S(F)(F)(F)(F)F)cc2)C(C(=O)N2CCN(C(=O)OC(C)(C)C)C2)c2cccnc2)N(C#N)C1 (single isomer, unassigned) [1148d Isomer 1] | < 2000 | 2000 to 10000 nM |  |  | < 2 |
| C[C@@]1(O)C[C@H](C(=O)N(c2ccc(S(F)(F)(F)(F)F)cc2)C(C(=O)NC2CCC(F)(F)CC2)c2ccc(F)nc2)N(C#N)C1 (single isomer, unassigned) [1157 Isomer 1] | < 2000 | < 2000 nM |  |  | < 2 |
| C[C@@]1(O)C[C@H](C(=O)N(c2ccc(S(F)(F)(F)(F)F)cc2)C(C(=O)NC2CCC(F)(F)CC2)c2ccc(F)nc2)N(C#N)C1 (single isomer, unassigned) [1157 Isomer 2] |  | 2000 to 10000 nM | 2 to 10 | < 2000 |  |
| C[C@@]1(O)C[C@H](C(=O)N(c2ccc(S(F)(F)(F)(F)F)cc2)C(C(=O)NC2CCC(F)(F)CC2)c2cccnc2F)N(C#N)C1 (single isomer, unassigned) [1158 Isomer 1] | < 2000 | < 2000 nM |  |  | < 2 |
| C[C@@]1(O)C[C@H](C(=O)N(c2ccc(S(F)(F)(F)(F)F)cc2)C(C(=O)NC2CCC(F)(F)CC2)c2cccnc2F)N(C#N)C1 (single isomer, unassigned) [1158 Isomer 2] |  | 2000 to 10000 nM | < 2 | < 2000 |  |
| CO[C@@H]1C[C@H](C(=O)N(c2ccc(S(F)(F)(F)(F)F)cc2)C(C(=O)NC2CCOC(C)(C)C2)c2cccnc2)N(C#N)C1 (single isomer, unassigned) [1165 Isomer 1] | < 2000 | < 2000 nM |  |  | < 2 |
| CO[C@@H]1C[C@H](C(=O)N(c2ccc(S(F)(F)(F)(F)F)cc2)C(C(=O)NC2CCOC(C)(C)C2)c2cccnc2)N(C#N)C1 (single isomer, unassigned) [1165 Isomer 2] |  | 10000 to 30000 nM | 2 to 10 | < 2000 |  |
| CO[C@@H]1C[C@H](C(=O)N(c2ccc(S(F)(F)(F)(F)F)cc2)C(C(=O)Nc2ccc3c(c2)OCCO3)c2cccnc2)N(C#N)C1 (single isomer, unassigned) [1170 Isomer 1] | 2000 to 10000 | 10000 to 30000 nM |  |  | 2 to 10 |
| CO[C@@H]1C[C@H](C(=O)N(c2ccc(S(F)(F)(F)(F)F)cc2)C(C(=O)Nc2ccc3c(c2)OCCO3)c2cccnc2)N(C#N)C1 (single isomer, unassigned) [1170 Isomer 2] | < 2000 | < 2000 nM | < 2 |  |  |
| CO[C@@H]1C[C@H](C(=O)N(c2ccc(S(F)(F)(F)(F)F)cc2)C(C(=O)N2CC3(COC3)C2)c2cccnc2)N(C#N)C1 (single isomer, unassigned) [1171 Isomer 1] | < 2000 | 10000 to 30000 nM and < 2000 nM | < 2 |  | 2 to 10 |
| CO[C@@H]1C[C@H](C(=O)N(c2ccc(S(F)(F)(F)(F)F)cc2)C(C(=O)N2CCCC3(COC3)C2)c2cccnc2)N(C#N)C1 (single isomer, unassigned) [1175 Isomer 2] |  | 10000 to 30000 nM | 2 to 10 | < 2000 |  |
| CO[C@@H]1C[C@H](C(=O)N(c2ccc(S(F)(F)(F)(F)F)cc2)C(C(=O)NCC2(C)COC2)c2cccnc2)N(C#N)C1 (single isomer, unassigned) [1176 Isomer 1] | < 2000 | < 2000 nM |  |  | < 2 |
| CO[C@@H]1C[C@H](C(=O)N(c2ccc(S(F)(F)(F)(F)F)cc2)C(C(=O)NCC2(C)COC2)c2cccnc2)N(C#N)C1 (single isomer, unassigned) [1176 Isomer 2] |  | 10000 to 30000 nM | 2 to 10 | < 2000 |  |
| COc1ccc(NC(=O)C(c2cccnc2)N(C(=O)[C@H]2C[C@@H](OC)CN2C#N)c2ccc(S(F)(F)(F)(F)F)cc2)cn1 (single isomer, unassigned) [1180 Isomer 1] | 2000 to 10000 | 2000 to 10000 nM |  |  | 2 to 10 |
| COc1ccc(NC(=O)C(c2cccnc2)N(C(=O)[C@H]2C[C@@H](OC)CN2C#N)c2ccc(S(F)(F)(F)(F)F)cc2)cn1 (single isomer, unassigned) [1180 Isomer 2] | < 2000 | < 2000 nM | < 2 |  |  |
| CO[C@@H]1C[C@H](C(=O)N(c2ccc(S(F)(F)(F)(F)F)cc2)C(C(=O)NC2CC3CCC(C2)O3)c2cccnc2)N(C#N)C1 (single isomer, unassigned) [1187 Isomer 1] | < 2000 | < 2000 nM |  |  | < 2 |
| CO[C@@H]1C[C@H](C(=O)N(c2ccc(S(F)(F)(F)(F)F)cc2)C(C(=O)NC2CC3CCC(C2)O3)c2cccnc2)N(C#N)C1 (single isomer, unassigned) [1187 Isomer 2] |  | < 2000 nM | < 2 | < 2000 |  |
| CO[C@@H]1C[C@H](C(=O)N(c2ccc(S(F)(F)(F)(F)F)cc2)C(C(=O)NCC(C)(C)OC)c2cccnc2)N(C#N)C1 (single isomer, unassigned) [1194 Isomer 1] | < 2000 | < 2000 nM |  |  | < 2 |
| CO[C@@H]1C[C@H](C(=O)N(c2ccc(S(F)(F)(F)(F)F)cc2)C(C(=O)NCC(C)(C)OC)c2cccnc2)N(C#N)C1 (single isomer, unassigned) [1194 Isomer 2] |  | 10000 to 30000 nM | 2 to 10 | < 2000 |  |
| CO[C@@H]1C[C@H](C(=O)N(c2ccc(S(F)(F)(F)(F)F)cc2)C(C(=O)NCCc2cc(F)cc(F)c2)c2cccnc2)N(C#N)C1 (single isomer, unassigned) [1196 Isomer 1] | < 2000 | 2000 to 10000 nM |  |  | 2 to 10 |
| CO[C@@H]1C[C@H](C(=O)N(c2ccc(S(F)(F)(F)(F)F)cc2)C(C(=O)NCCc2cc(F)cc(F)c2)c2cccnc2)N(C#N)C1 (single isomer, unassigned) [1196 Isomer 2] |  | < 2000 nM | < 2 | < 2000 |  |
| CO[C@@H]1C[C@H](C(=O)N(c2ccc(S(F)(F)(F)(F)F)cc2)C(C(=O)NCCc2cccc(F)c2)c2cccnc2)N(C#N)C1 (single isomer, unassigned) [1197 Isomer 1] | < 2000 | < 2000 nM |  |  | < 2 |
| CO[C@@H]1C[C@H](C(=O)N(c2ccc(S(F)(F)(F)(F)F)cc2)C(C(=O)NCCc2cccc(F)c2)c2cccnc2)N(C#N)C1 (single isomer, unassigned) [1197 Isomer 2] |  | 2000 to 10000 nM | 2 to 10 | < 2000 |  |
| CO[C@@H]1C[C@H](C(=O)N(c2ccc(C(C)(C)C)cc2)C(C)(C(=O)NC2CCC(F)(F)CC2)c2cnccn2)N(C#N)C1 (single isomer, unassigned) [1198 Isomer 1] | 2000 to 10000 | 10000 to 30000 nM |  |  | 2 to 10 |
